Measured values published in patent US20240041715A1, “PROCESS FOR TREATING HUMAN PERSPIRATION AND BODY ODORS USING MAGNESIUM OXIDE AND A PHOSPHATE SALT” (L' OREAL, priority 2020, published 2024).

Assay: in vitro "sniff test" model of deodorant effectiveness using human sweat incubated at 37° C.
Conditions: average odor intensity rating, scores from 1=weak odor to 8=very strong odor, single ingredient
Procedure: The deodorant effectiveness of different KH2PO4/MgO mixtures at different molar ratios was studied in vitro in a “sniff test” model using human sweat incubated at 37° C.

| SMILES | Odor intensity |
| --- | --- |
| O=P([O-])(O)O.[K+] [KH2PO4, potassium dihydrogen phosphate] | 8 |
| [O]=[Mg] [MgO, magnesium oxide] | 1 |
